Where two headings read alike, the source gives them in different places.
How the values were obtained:
[1] = system: Wheat plants (Triticum aestivum cv. Monopol); assay: Growth-promoting effect on wheat plants after foliar treatment (Example 2); format: in vivo; settings: for Number of tillers: per plant; for activity at 7.81 g/ha / activity at 15.63 g/ha / activity at 31.25 g/ha: Triticum aestivum, 504 h
Experimental: Wheat plants (Triticum aestivum cv. Monopol) were grown in soil with ten plants per pot (13 cm diameter) under greenhouse conditions. Plants at the 2nd leaf stage were sprayed with an aqueous solution of formulated Dimethyl-carbamic acid 2-methylcarbamoyl-2-[(1-methyl-3-trifluoromethyl-1H-pyrazole-4-carbonyl)-amino]-1-(tetrahydro-pyran-4-yl)-ethyl ester (compound 1). The compound was applied at three different dose rates, i.e. 31.25/15.63/7.81 g ai/ha and the spray volume was 750 l/ha. Ten replicate pots with ten plants each were used per treatment. After three weeks (21 days) plants were harvested and growth parameters were determined. The recorded parameters were fresh weight, dry weigh, leaf area (all per pot) and number of tillers (per plant). Mean values of results, standard deviation (SD) and percentage to control were calculated.

[2] = system: Wheat plants (Triticum aestivum cv. Cubus); assay: Growth-promoting effect on wheat plants after root treatment (hydroponic culture); format: in vivo; parameters: Shoot-FW ± SE / Root-FW ± SE: unit not given here; settings: for Root-FW ± SE / Shoot-FW ± SE / activity at 1 µM / activity at 3 µM: seven days after treatment; for activity at 1 µM / activity at 3 µM: Triticum aestivum, 168 h
Experimental: Wheat plants (Triticum aestivum cv. Cubus) at the 2nd leaf stage were cultivated in 320 mL glass vessels with 300 mL half-strength Linsmaier-Skoog medium (Physiologia Plantarum 18: 100-127, 1964). The solution was aerated throughout experiment. The vessels were incubated randomized in a climate chamber under 16:8 h light:dark cycles (photon flux density 400 μmol m-2 s-1, 400-750 nm, Osram powerstar HQI-R 250W/NDL and Osram krypton 100W lamps) at 22° C. (light):20° C. (dark) and 75% relative humidity (3 plants per vessel, 9 replicate vessels). After 2 days of adaptation, plants were treated with Dimethyl-carbamic acid 2-methylcarbamoyl-2-[(1-methyl-3-trifluoromethyl-1H-pyrazole-4-carbonyl)-amino]-1-(tetrahydro-pyran-4-yl)-ethyl ester (compound 1) which was added to the medium in dimethyl sulfoxide (DMSO) solution (0.1% final concentration of DMSO). Controls received corresponding quantity of DMSO alone, with no adverse effect on the growth of the plants. Seven days after treatment, fresh weights (FW) of shoot and root, as the growth parameters, were measured and mean values±standard error (SE) of 27 plant parts was calculated.

[3] = 7.81 g/ha foliar spray, 21 days, per pot
[4] = 15.63 g/ha foliar spray, 21 days, per pot
[5] = 31.25 g/ha foliar spray, 21 days, per pot

`CNC(=O)C(NC(=O)c1cn(C)nc1C(F)(F)F)C(OC(=O)N(C)C)C1CCOCC1` (stereo not shown) [Compound 1, Dimethyl-carbamic acid 2-methylcarbamoyl-2-[(1-methyl-3-trifluoromethyl-1H-pyrazole-4-carbonyl)-amino]-1-(tetrahydro-pyran-4-yl)-ethyl ester] was tested, and the Number of tillers ([1]; 7.81 g/ha foliar spray, 21 days) was 2.9, the Leaf area [1, 3] was 1121.1 cm^2 and the “Shoot DW” value [1, 3] was 4.4 g. The “Shoot FW” value [1, 3] was 43.9 g, the Number of tillers ([1]; 15.63 g/ha foliar spray, 21 days) was 2.8 and the Leaf area [1, 4] was 1046.3 cm^2. The “Shoot DW” value [1, 4] was 4.0 g, the “Shoot FW” value [1, 4] was 40.5 g and the Number of tillers ([1]; 31.25 g/ha foliar spray, 21 days) was 2.8. For the same molecule, the Leaf area [1, 5] was 1060.3 cm^2, the “Shoot DW” value [1, 5] was 4.2 g and the “Shoot FW” value [1, 5] was 42.8 g. For the same molecule, the activity at 7.81 g/ha ([1]; 7.81 g/ha foliar spray, 21 days, read-out: Leaf area % of control) was 126%, the activity at 7.81 g/ha ([1]; 7.81 g/ha foliar spray, 21 days, read-out: Number of tillers % of control) was 118% and the activity at 7.81 g/ha ([1]; 7.81 g/ha foliar spray, 21 days, read-out: Shoot DW % of control) was 127%. It also gave an activity at 7.81 g/ha ([1]; 7.81 g/ha foliar spray, 21 days, read-out: Shoot FW % of control) of 126%, an activity at 15.63 g/ha ([1]; 15.63 g/ha foliar spray, 21 days, read-out: Leaf area % of control) of 118% and an activity at 15.63 g/ha ([1]; 15.63 g/ha foliar spray, 21 days, read-out: Number of tillers % of control) of 114%. The activity at 15.63 g/ha ([1]; 15.63 g/ha foliar spray, 21 days, read-out: Shoot DW % of control) was 116%, the activity at 15.63 g/ha ([1]; 15.63 g/ha foliar spray, 21 days, read-out: Shoot FW % of control) was 116% and the activity at 31.25 g/ha ([1]; 31.25 g/ha foliar spray, 21 days, read-out: Leaf area % of control) was 120%. It also gave an activity at 31.25 g/ha ([1]; 31.25 g/ha foliar spray, 21 days, read-out: Number of tillers % of control) of 114%, an activity at 31.25 g/ha ([1]; 31.25 g/ha foliar spray, 21 days, read-out: Shoot DW % of control) of 122% and an activity at 31.25 g/ha ([1]; 31.25 g/ha foliar spray, 21 days, read-out: Shoot FW % of control) of 123%. The “growth promoting (yield increasing) effect, dose response” value ([1]; by lowering the dose rate) was “more pronounced”, the shoot tillering ([1]; foliar treatment) was “increased” and the “increase in fresh and dry weight related to control” value ([1]; foliar treatment, 7.81-31.25 g/ha) was “up to 26%”. For the same molecule, the Leaf area ([1]; foliar treatment, lowest dose rate gave the highest effect) was “increased”, the “Root-FW ± SE” value ([2]; Experiment 1, 1 μM in medium) was 0.403 ± 0.015 and the “Shoot-FW ± SE” value ([2]; Experiment 1, 1 μM in medium) was 0.747 ± 0.017. The “Root-FW ± SE” value ([2]; Experiment 1, 3 μM in medium) was 0.382 ± 0.013, the “Shoot-FW ± SE” value ([2]; Experiment 1, 3 μM in medium) was 0.733 ± 0.019 and the “Root-FW ± SE” value ([2]; Experiment 2, 1 μM in medium) was 0.342 ± 0.010. The “Shoot-FW ± SE” value ([2]; Experiment 2, 1 μM in medium) was 0.736 ± 0.024, the “Root-FW ± SE” value ([2]; Experiment 2, 3 μM in medium) was 0.335 ± 0.012 and the “Shoot-FW ± SE” value ([2]; Experiment 2, 3 μM in medium) was 0.738 ± 0.021. For the same molecule, the activity at 1 µM ([2]; Experiment 1, 1 μM in medium, read-out: Root-FW % of control) was 113%, the activity at 1 µM ([2]; Experiment 1, 1 μM in medium, read-out: Shoot-FW % of control) was 115% and the activity at 3 µM ([2]; Experiment 1, 3 μM in medium, read-out: Root-FW % of control) was 107%. The activity at 3 µM ([2]; Experiment 1, 3 μM in medium, read-out: Shoot-FW % of control) was 112%, the activity at 1 µM ([2]; Experiment 2, 1 μM in medium, read-out: Root-FW % of control) was 105% and the activity at 1 µM ([2]; Experiment 2, 1 μM in medium, read-out: Shoot-FW % of control) was 115%. For the same molecule, the activity at 3 µM ([2]; Experiment 2, 3 μM in medium, read-out: Root-FW % of control) was 103%, the activity at 3 µM ([2]; Experiment 2, 3 μM in medium, read-out: Shoot-FW % of control) was 115% and the “shoot tillering and adventitious root growth” value ([2]; root treatment) was “promoted”. For the same molecule, the “stimulation of shoot and root growth relative to controls” value ([2]; root treatment, 1 and 3 μM, two experiments) was “up to 15%”.
